Here are results for 1 compound from PMC9540480 (Clinical Pharmacology and Therapeutics, 2022).

Values after ≈ are worked out from the molar mass of the structure shown. Some results are limits rather than exact numbers.

Data set [1] in a line: Population PK model of oral enpatoran, phase I healthy participant study. Type of data set: in vivo, human. The conditions noted are these: interindividual variability, PopPK model.
The test system of data set [2] is BXSB-Yaa mouse model of lupus. The conditions noted are these: cited from earlier work.
The conditions of data set [3]: cited from earlier work.
For data set [4], the system named is IFN-α-accelerated NZB/W mouse model of lupus. The conditions noted are these: cited from earlier work.
For data set [5] the following is noted: phase I study in healthy participants; cited from earlier work.
Data set [6] concerns ex vivo-stimulated IL-6 secretion (TLR7/8). It is filed as in vivo, human.
For data set [7] the following is noted: cited from earlier work. This is another data set of the same source.
For data set [8], the system named is ex vivo-stimulated IFN-α secretion (TLR7/8). It is filed as in vivo, human.
Another data set relates to IL-6 secretion (TLR7/8). The conditions noted are these: mice, mouse models of lupus; cited from earlier work.
The next data set deals with Caco-2. The conditions noted are these: cited from earlier work.
In a further data set the test system is aldehyde oxidase enzyme. The conditions noted are these: shown in vitro; cited from earlier work.

As to `N#Cc1ccc(N2C[C@H](N)C[C@H](C(F)(F)F)C2)c2cccnc12` [enpatoran, Enpatoran], the “IIV CL/F” value in data set [1] was 27.5 %CV. The “doses suppressing disease development” value in data set [2] and in data set [4] was ≥ 1 mg/kg throughout. For the same compound, the logP in data set [3] is given as 2. Also, in data set [5], the tolerability entry is “well‐tolerated”. Besides, the values for the 90% effect concentration (IC90) in data set [6] (Homo sapiens) and in [8] (Homo sapiens) were 0.0155 µg/mL (≈ 0.0484 µM) and 0.0221 µg/mL (≈ 0.069 µM), respectively. Besides, the “inhibition of cytokine release with increasing enpatoran concentrations” value in [6] (IL-6, complete inhibition) turned out to be 100%; in [8] (IFN-α, complete inhibition) it was 100%. Further, the Hill factor in [6] (ex vivo-stimulated IL-6) and in data set [8] (ex vivo-stimulated IFN-α) was > 1.5 throughout. The IC60 was determined as 0.00559 µg/mL (≈ 0.0175 µM) in [6] (ex vivo-stimulated IL-6, derived from IC50 and Hill factor); 0.00843 µg/mL (≈ 0.0263 µM) in [8] (ex vivo-stimulated IFN-α, derived from IC50 and Hill factor). Besides, the “F (fraction of the oral dose systemically available)” value in data set [7] is given as > 85%. Also, the “lowest (minimally) efficacious dose” value with IL-6 secretion (TLR7/8) is given as 1 mg/kg. Further, the Caco-2 permeability in the data set on Caco-2 is 26 ×10⁻⁶ cm/s. For the same compound, the metabolic route result in the data set with aldehyde oxidase enzyme is “metabolism via the aldehyde oxidase enzyme”.

By logP is commonly meant the decadic logarithm of the partition coefficient of the neutral form, usually between octanol and water. The term IC90 denotes the point of the concentration-response curve where the effect stands at 90%. A low value points to greater potency.
